Data as given in patent publication US20180099931A1 (AbbVie S.à.r.l., priority 2016, published 2018).
pEC50: −log10 of the molar value. Like-named read-outs stand apart in the source and are kept apart here.

Biological target: T1, F508delCFTR (Homo sapiens, UniProt P13569, DEL508-508)
T1 construct: expressed in transfected cells; host or cells: CFBE41o- human lung-derived epithelial cells (CFBE4lo-F508delCFTR-HRP), doxycycline-inducible
Test: Cell Surface Expression-Horse Radish Peroxidase (CSE-HRP) Assay;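 for Maximum % activity (with co-corrector): co-corrector and positive control are both the same reference corrector at 2 µM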;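 for Maximum % activity (without co-corrector): percent of the 2 µM on-plate positive control corrector response above DMSO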
Assay type: cell-based
Conditions: for Maximum % activity (with co-corrector) / Emax: maximum at any tested concentration, normalized to on-plate positive control; for Emax: read-out: Maximum % activity (without co-corrector)
Protocol: Cell Surface Expression-Horse Radish Peroxidase (CSE-HRP) Assay;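 for Maximum % activity (with co-corrector): co-corrector and positive control are both the same reference corrector at 2 µM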;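 for Maximum % activity (without co-corrector): percent of the 2 µM on-plate positive control corrector response above DMSO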
The development was achieved by expressing the F508delCFTR mutation along with a horseradish peroxidase (HRP) in the fourth exofacial loop, and then measuring the HRP activity using luminescence readout from these cells, CFBE4lo-F508delCFTR-HRP, that were incubated overnight with the test corrector compounds, either without or with the co-corrector. […] The test compounds were then added either without or with a co-corrector at the required concentrations and further incubated for 18-24 hours at 33° C. The highest concentration tested was 20 μM with an 8-point concentration response curve using a 3-fold dilution in both the test compound without or with the co-corrector. Three replicate plates were run to determine one EC50. All plates contained negative controls (dimethyl sulfoxide, DMSO) and positive control (2 μM of 3-[(2R,4R)-4-({[1-(2,2-difluoro-1,3-benzodioxol-5-yl)cyclopropyl]carbonyl}amino)-7-methoxy-3,4-dihydro-2H-chromen-2-yl]benzoic acid) as well as on-plate concentration response of the positive control. […] The raw counts from the experiment were analyzed using Accelrys® Assay Explorer v3.3.
1−[3*SDPositive Control+3*SDNegative Control/Absolute(MeanPositive Control−MeanNegative Control)]
wherein “SD” is standard deviation.
The % activity measured at each of the 8 test concentrations of the test compound added either without or with a co-corrector (2 μM of 3-[(2R,4R)-4-({[1-(2,2-difluoro-1,3-benzodioxol-5-yl)cyclopropyl]carbonyl}amino)-7-methoxy-3,4-dihydro-2H-chromen-2-yl]benzoic acid) was normalized to the on-plate positive control using the following formulae:
% activity(Test compound without co-corrector)=[(test compound without co-corrector response−DMSO response)/(positive control response−DMSO response)]*100
% activity(Test compound with co-corrector)=[(test compound with co-corrector response−DMSO response)/(positive control response−DMSO response)]*100
The maximum % activity achieved for the test compound either without or with a co-corrector at any tested concentration is presented in Table 4 along with the respective EC50's calculated using the following general sigmoidal curve with variable Hill slope equation (described as Model 42 in the Accelrys® Assay Explorer v3.3 software):
General sigmoidal curve with concentration, response, top, bottom, EC50 and Hill slope. This model describes a sigmoidal curve with an adjustable baseline, a. The equation can be used to fit curves where response is either increasing or decreasing with respect to the independent variable, “x”.
“x” is a concentration of drug under test. “y” is the response. “a” is the maximum response, and “d” is the minimum response “c” is the inflection point (EC50) for the curve. That is, “y” is halfway between the lower and upper asymptotes when x=c. “b” is the slope-factor or Hill coefficient. The sign of b is positive when the response increases with increasing dose and is negative when the response decreases with increasing dose (inhibition).

[1] = CSE-HRP, test compound without co-corrector, read-out: EC50 (without co-corrector)
[2] = CSE-HRP, with co-corrector (2 μM of 3-[(2R,4R)-4-({[1-(2,2-difluoro-1,3-benzodioxol-5-yl)cyclopropyl]carbonyl}amino)-7-methoxy-3,4-dihydro-2H-chromen-2-yl]benzoic acid), read-out: EC50 (with co-corrector)
[3] = CSE-HRP, with co-corrector (2 μM)
[4] = test compound without co-corrector
[5] = test compound without co-corrector, read-out: EC50 (without co-corrector)
[6] = with co-corrector (2 μM of 3-[(2R,4R)-4-({[1-(2,2-difluoro-1,3-benzodioxol-5-yl)cyclopropyl]carbonyl}amino)-7-methoxy-3,4-dihydro-2H-chromen-2-yl]benzoic acid)
[7] = with co-corrector (2 μM of 3-[(2R,4R)-4-({[1-(2,2-difluoro-1,3-benzodioxol-5-yl)cyclopropyl]carbonyl}amino)-7-methoxy-3,4-dihydro-2H-chromen-2-yl]benzoic acid), read-out: EC50 (with co-corrector)

T1 sequence (P13569 with tags, fused parts or gaps DEL508-508): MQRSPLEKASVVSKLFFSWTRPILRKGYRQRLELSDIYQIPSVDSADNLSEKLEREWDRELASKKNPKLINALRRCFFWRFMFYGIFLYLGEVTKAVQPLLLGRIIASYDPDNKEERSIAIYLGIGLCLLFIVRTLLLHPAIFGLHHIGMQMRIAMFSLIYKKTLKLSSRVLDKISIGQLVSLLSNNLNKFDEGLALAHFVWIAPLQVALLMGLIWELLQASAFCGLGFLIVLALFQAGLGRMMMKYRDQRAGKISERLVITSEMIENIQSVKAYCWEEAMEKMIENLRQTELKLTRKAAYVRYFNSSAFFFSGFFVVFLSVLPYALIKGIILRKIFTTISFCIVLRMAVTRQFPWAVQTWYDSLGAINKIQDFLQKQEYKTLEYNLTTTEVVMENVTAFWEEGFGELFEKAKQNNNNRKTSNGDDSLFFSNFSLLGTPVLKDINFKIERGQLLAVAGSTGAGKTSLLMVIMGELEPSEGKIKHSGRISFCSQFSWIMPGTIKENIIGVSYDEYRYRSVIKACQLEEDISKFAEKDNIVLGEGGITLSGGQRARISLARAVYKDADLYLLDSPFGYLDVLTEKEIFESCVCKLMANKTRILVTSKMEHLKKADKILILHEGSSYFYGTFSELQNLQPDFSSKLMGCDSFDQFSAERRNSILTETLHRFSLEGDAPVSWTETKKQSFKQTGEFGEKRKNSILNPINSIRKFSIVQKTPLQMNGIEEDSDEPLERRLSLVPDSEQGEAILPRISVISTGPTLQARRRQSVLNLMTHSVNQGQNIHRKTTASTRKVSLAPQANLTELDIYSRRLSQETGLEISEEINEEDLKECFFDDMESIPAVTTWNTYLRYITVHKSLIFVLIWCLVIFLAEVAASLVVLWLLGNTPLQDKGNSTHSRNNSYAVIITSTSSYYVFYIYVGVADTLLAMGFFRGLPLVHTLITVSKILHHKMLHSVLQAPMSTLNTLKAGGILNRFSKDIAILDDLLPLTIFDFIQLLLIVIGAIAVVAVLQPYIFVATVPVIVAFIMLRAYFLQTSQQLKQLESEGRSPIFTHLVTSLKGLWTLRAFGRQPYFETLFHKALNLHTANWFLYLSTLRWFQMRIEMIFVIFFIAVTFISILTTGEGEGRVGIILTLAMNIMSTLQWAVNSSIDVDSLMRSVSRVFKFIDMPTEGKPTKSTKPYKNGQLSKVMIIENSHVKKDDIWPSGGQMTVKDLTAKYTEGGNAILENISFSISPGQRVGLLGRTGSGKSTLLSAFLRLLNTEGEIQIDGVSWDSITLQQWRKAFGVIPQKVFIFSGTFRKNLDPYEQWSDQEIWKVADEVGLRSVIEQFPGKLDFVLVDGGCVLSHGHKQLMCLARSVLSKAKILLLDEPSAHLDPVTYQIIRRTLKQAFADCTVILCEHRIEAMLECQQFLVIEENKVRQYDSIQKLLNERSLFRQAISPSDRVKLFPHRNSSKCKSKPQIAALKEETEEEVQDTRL

pEC50 [1]	pEC50 [2]	Maximum % activity (with co-corrector) [3]	Emax (CSE-HRP, without co-corrector)	Emax [4]	pEC50 [5]	Maximum % activity (with co-corrector) [6]	pEC50 [7]	Structure (SMILES)
5.00 to 6.00	5.00 to 6.00	++ (≥150 and <350)	< 100%	–	–	–	–	COc1cc(C(F)(F)F)ccc1CN[C@@H]1[C@@H](C(C)(C)C)[C@H](C(=O)O)N(C(=O)C2CCC(F)(F)CC2)[C@@H]1c1ccccc1 (racemic) [II-69]
5.00 to 6.00	5.00 to 6.00	++ (≥150 and <350)	< 100%	–	–	–	–	COc1ccc(C(F)(F)F)cc1CN[C@@H]1[C@@H](C(C)(C)C)[C@H](C(=O)O)N(C(=O)C2CCC3(CC2)CC3)[C@@H]1c1ccccc1 (racemic) [II-70]
5.00 to 6.00	5.00 to 6.00	++ (≥150 and <350)	< 100%	–	–	–	–	COc1ccc(C#N)cc1CN[C@@H]1[C@@H](C(C)(C)C)[C@H](C(=O)O)N(C(=O)C2CCCCC2)[C@@H]1c1ccccc1 (racemic) [II-71]
> 6.00	5.00 to 6.00	++ (≥150 and <350)	< 100%	–	–	–	–	Cc1ccc(C(F)(F)F)cc1CN[C@@H]1[C@@H](C(C)(C)C)[C@H](C(=O)O)N(C(=O)C2CCCCC2)[C@@H]1c1ccccc1 (racemic) [II-72]
5.00 to 6.00	5.00 to 6.00	+++ (≥350)	> 200%	–	–	–	–	COc1ccc(C(C)C)cc1CN[C@@H]1[C@@H](C(C)(C)C)[C@H](C(=O)O)N(C(=O)C2CCCCC2)[C@@H]1c1ccccc1 (racemic) [II-73]
5.00 to 6.00	5.00 to 6.00	+++ (≥350)	< 100%	–	–	–	–	COc1cc(C#N)ccc1CN[C@@H]1[C@@H](C(C)(C)C)[C@H](C(=O)O)N(C(=O)C2CCCCC2)[C@@H]1c1ccccc1 (racemic) [II-74]
> 6.00	5.00 to 6.00	++ (≥150 and <350)	< 100%	–	–	–	–	CC(C)(C)[C@@H]1[C@@H](NCc2cc(Cl)ccc2OC(F)(F)F)[C@@H](c2ccccc2)N(C(=O)C2CCCCC2)[C@H]1C(=O)O (racemic) [II-75]
5.00 to 6.00	5.00 to 6.00	+++ (≥350)	< 100%	–	–	–	–	CC(C)(C)[C@@H]1[C@@H](NCc2ccccc2OC(F)(F)F)[C@@H](c2ccccc2)N(C(=O)C2CCCCC2)[C@H]1C(=O)O (racemic) [II-76]
5.00 to 6.00	5.00 to 6.00	+++ (≥350)	100 to 200%	–	–	–	–	COc1nc(C(F)(F)F)ccc1CN[C@@H]1[C@@H](C(C)(C)C)[C@H](C(=O)O)N(C(=O)C2CCCCC2)[C@@H]1c1ccccc1 (racemic) [II-77]
5.00 to 6.00	5.00 to 6.00	+++ (≥350)	> 200%	–	–	–	–	COc1ccc(Cl)cc1CN[C@@H]1[C@@H](C(C)(C)OC)[C@H](C(=O)O)N(C(=O)C2CCCCC2)[C@@H]1c1ccccc1 (racemic) [II-79]
5.00 to 6.00	5.00 to 6.00	++ (≥150 and <350)	< 100%	–	–	–	–	COc1ccc(C(F)(F)F)cc1CN[C@@H]1[C@@H](C(C)(C)C)[C@H](C(=O)O)N(C(=O)C2COCCO2)[C@@H]1c1ccccc1 (mixture of isomers) [II-85]
5.00 to 6.00	5.00 to 6.00	++ (≥150 and <350)	< 100%	–	–	–	–	COc1ccc(Cl)cc1CN[C@@H]1[C@@H](C(C)(C)C)[C@H](C(=O)O)N(C(=O)C2COCCO2)[C@@H]1c1ccccc1 (mixture of isomers) [II-86]
5.00 to 6.00	5.00 to 6.00	+++ (≥350)	100 to 200%	–	–	–	–	COc1cc(C(F)(F)F)ccc1CN[C@@H]1[C@@H](C(C)(C)OC)[C@H](C(=O)O)N(C(=O)C2CCCCC2)[C@@H]1c1ccccc1 (racemic) [II-88]
5.00 to 6.00	5.00 to 6.00	++ (≥150 and <350)	< 100%	–	–	–	–	COc1ncc(C(F)(F)F)cc1N[C@@H]1[C@@H](C(C)(C)OC)[C@H](C(=O)O)N(C(=O)C2CCCCC2)[C@@H]1c1ccccc1 (racemic) [II-89]
5.00 to 6.00	5.00 to 6.00	+++ (≥350)	> 200%	–	–	–	–	COc1ccc(C(C)(C)C)cc1CN[C@@H]1[C@@H](C(C)(C)C)[C@H](C(=O)O)N(C(=O)OC2CCC2)[C@@H]1c1ccccc1 (racemic) [II-90]
–	–	–	–	< 100%	< 5.00	++ (≥150 and <350)	5.00 to 6.00	Cc1ccccc1CN[C@@H]1[C@@H](C(C)(C)C)[C@H](C(=O)O)N(C(=O)CC2CCCC2)[C@@H]1c1ccccc1 (racemic) [III-2]
–	–	–	–	< 100%	< 5.00	++ (≥150 and <350)	5.00 to 6.00	CC(C)(C)[C@@H]1[C@@H](NCc2ccc(Cl)cc2Cl)[C@@H](c2ccccc2)N(C(=O)CC2CCCC2)[C@H]1C(=O)O (racemic) [III-3]
–	–	–	–	< 100%	5.00 to 6.00	+++ (≥350)	5.00 to 6.00	CC(C)(C)[C@@H]1[C@@H](Nc2cc(C(F)(F)F)ccn2)[C@@H](c2ccccc2)N(C(=O)C2CCCCC2)[C@H]1C(=O)O (racemic) [III-4]
–	–	–	–	< 100%	5.00 to 6.00	++ (≥150 and <350)	5.00 to 6.00	CC(C)(C)[C@@H]1[C@@H](Nc2ccc(C(F)(F)F)cn2)[C@@H](c2ccccc2)N(C(=O)C2CCCCC2)[C@H]1C(=O)O (racemic) [III-5]
–	–	–	–	< 100%	< 5.00	++ (≥150 and <350)	5.00 to 6.00	CC(C)(C)[C@@H]1[C@@H](Nc2cc(Cl)ccn2)[C@@H](c2ccccc2)N(C(=O)C2CCCCC2)[C@H]1C(=O)O (racemic) [III-6]
–	–	–	–	< 100%	5.00 to 6.00	+++ (≥350)	5.00 to 6.00	CC(C)(C)[C@@H]1[C@@H](NCc2ccccc2OC(F)F)[C@@H](c2ccccc2)N(C(=O)C2CCCCC2)[C@H]1C(=O)O (racemic) [III-7]
–	–	–	–	< 100%	5.00 to 6.00	+++ (≥350)	5.00 to 6.00	COc1cccc(N[C@@H]2[C@@H](C(C)(C)C)[C@H](C(=O)O)N(C(=O)C3CCCCC3)[C@@H]2c2ccccc2)n1 (racemic) [III-8]
